Results: PubChem BioAssay (NCI)
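The compound was tested at five concentrations on cells cultured in 96-well plates, with a 48-hour exposure period. GI50: concentration for 50% inhibition of growth. TGI: concentration producing complete growth inhibition.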

Tests used:
Test in all cases: growth of human tumour cells (NCI), 48 h
[1] = tested on: HS 578T breast
[2] = tested on: SNB-75 CNS
[3] = tested on: MALME-3M melanoma
[4] = tested on: DU-145 prostate
[5] = tested on: NCI/ADR-RES ovarian
[6] = tested on: NCI-H23 lung
[7] = tested on: OVCAR-4 ovarian
[8] = tested on: NCI-H226 lung
[9] = tested on: RXF 393 renal
[10] = tested on: HCT-15 colon
[11] = tested on: MCF7 breast
[12] = tested on: CCRF-CEM leukemia
[13] = tested on: SK-MEL-2 melanoma
[14] = tested on: UO-31 renal
[15] = tested on: A549 NSCLC
[16] = tested on: OVCAR-5 ovarian
[17] = tested on: LOX IMVI melanoma
[18] = tested on: MDA-N
[19] = tested on: SK-MEL-5 melanoma
[20] = tested on: RPMI-8226 leukemia
[21] = tested on: KM12 colon
[22] = tested on: T-47D breast
[23] = tested on: TK-10 renal
[24] = tested on: CAKI-1 renal
[25] = tested on: COLO 205 colon
[26] = tested on: HCC-2998 colon
[27] = tested on: UACC-62 melanoma
[28] = tested on: HCT-116 colon
[29] = tested on: SF-539 CNS
[30] = tested on: A498 renal
[31] = tested on: PC-3 prostate
[32] = tested on: K-562 leukemia
[33] = tested on: OVCAR-3 ovarian
[34] = tested on: U251 CNS
[35] = tested on: SK-MEL-28 melanoma
[36] = tested on: ACHN renal
[37] = tested on: SF-295 CNS
[38] = tested on: OVCAR-8 ovarian
[39] = tested on: HT29 colon
[40] = tested on: SN12C renal
[41] = tested on: BT-549 breast
[42] = tested on: HOP-92 NSCLC
[43] = tested on: UACC-257 melanoma
[44] = tested on: MOLT-4 leukemia
[45] = tested on: SF-268 CNS
[46] = tested on: SW-620 colon
[47] = tested on: M14 melanoma
[48] = tested on: NCI-H522 lung
[49] = tested on: IGROV1 ovarian
[50] = tested on: MDA-MB-231 breast
[51] = tested on: NCI-H460 lung
[52] = tested on: MDA-MB-435
[53] = tested on: 786-0 renal
[54] = tested on: EKVX NSCLC
[55] = tested on: SNB-19 CNS
[56] = tested on: SK-OV-3 ovarian
[57] = tested on: HOP-62 NSCLC

For `O=C1C=C(c2cc(Br)c(O)c(Br)c2)/C(=C/c2cc(Br)c(O)c(Br)c2)O1`, the GI50 [1] was 33.9 µM, the TGI [1] was > 75 µM and the GI50 [2] was 39 µM. For the same molecule, the TGI [2] was > 75 µM, the GI50 [3] was 41.5 µM and the TGI [3] was > 75 µM. For the same molecule, the GI50 [4] was 31.7 µM, the TGI [4] was > 75 µM and the GI50 [5] was 40.3 µM. The TGI [5] was > 75 µM, the GI50 [6] was 35.2 µM and the TGI [6] was > 75 µM. For the same molecule, the GI50 [7] was 50.4 µM, the TGI [7] was > 75 µM and the GI50 [8] was 43.6 µM. For the same molecule, the TGI [8] was > 75 µM, the GI50 [9] was 1.82 µM and the TGI [9] was 23.6 µM. For the same molecule, the GI50 [10] was 28.8 µM, the TGI [10] was > 75 µM and the GI50 [11] was 37 µM. The TGI [11] was > 75 µM, the GI50 [12] was 7.38 µM and the TGI [12] was 73.8 µM. For the same molecule, the GI50 [13] was 38.5 µM, the TGI [13] was > 75 µM and the GI50 [14] was 19.2 µM. For the same molecule, the TGI [14] was > 75 µM, the GI50 [15] was 11.2 µM and the TGI [15] was 49.3 µM. The GI50 [16] was 64.8 µM, the TGI [16] was > 75 µM and the GI50 [17] was 14.9 µM. The TGI [17] was 43.2 µM, the GI50 [18] was 33 µM and the TGI [18] was > 75 µM. The GI50 [19] was 29 µM, the TGI [19] was > 75 µM and the GI50 [20] was 22.2 µM. For the same molecule, the TGI [20] was 66.7 µM, the GI50 [21] was 37.6 µM and the TGI [21] was > 75 µM. For the same molecule, the GI50 [22] was > 75 µM, the TGI [22] was > 75 µM and the GI50 [23] was 35.8 µM. The TGI [23] was > 75 µM, the GI50 [24] was 34.3 µM and the TGI [24] was > 75 µM. The GI50 [25] was 29.8 µM, the TGI [25] was > 75 µM and the GI50 [26] was 56.1 µM. The TGI [26] was > 75 µM, the GI50 [27] was 16.8 µM and the TGI [27] was 38.2 µM. It also gave a GI50 [28] of 14.8 µM, a TGI [28] of 43.8 µM and a GI50 [29] of 24 µM. For the same molecule, the TGI [29] was > 75 µM, the GI50 [30] was 20.1 µM and the TGI [30] was 57.2 µM. The GI50 [31] was 25 µM, the TGI [31] was > 75 µM and the GI50 [32] was 24 µM. For the same molecule, the TGI [32] was > 75 µM, the GI50 [33] was 21 µM and the TGI [33] was 71 µM. For the same molecule, the GI50 [34] was 26.4 µM, the TGI [34] was > 75 µM and the GI50 [35] was 34.8 µM. The TGI [35] was > 75 µM, the GI50 [36] was 29.4 µM and the TGI [36] was > 75 µM. For the same molecule, the GI50 [37] was 29.4 µM, the TGI [37] was > 75 µM and the GI50 [38] was 29 µM. The TGI [38] was > 75 µM, the GI50 [39] was 39.2 µM and the TGI [39] was > 75 µM. The GI50 [40] was 36.5 µM, the TGI [40] was > 75 µM and the GI50 [41] was 28.6 µM. For the same molecule, the TGI [41] was > 75 µM, the GI50 [42] was 15.4 µM and the TGI [42] was > 75 µM. For the same molecule, the GI50 [43] was > 75 µM, the TGI [43] was > 75 µM and the GI50 [44] was 18.4 µM. For the same molecule, the TGI [44] was 51.9 µM, the GI50 [45] was 30.5 µM and the TGI [45] was > 75 µM. The GI50 [46] was 29.7 µM, the TGI [46] was > 75 µM and the GI50 [47] was 17.8 µM. The TGI [47] was > 75 µM, the GI50 [48] was 30.4 µM and the TGI [48] was > 75 µM. For the same molecule, the GI50 [49] was 17.8 µM, the TGI [49] was > 75 µM and the GI50 [50] was 32 µM. The TGI [50] was > 75 µM, the GI50 [51] was 24.1 µM and the TGI [51] was > 75 µM. For the same molecule, the GI50 [52] was 33.6 µM, the TGI [52] was > 75 µM and the GI50 [53] was 35.8 µM. The TGI [53] was > 75 µM, the GI50 [54] was 54.1 µM and the TGI [54] was > 75 µM. The GI50 [55] was 14 µM and the TGI [55] was > 75 µM.

In the case of `CCOC(=O)/C=C(/C(=O)OCC)n1cc(C)c(=O)n(Cc2cnnn2CCCCOC(C)=O)c1=O`, the TGI [1] is reported as > 100 µM, the TGI [2] is reported as > 100 µM and the TGI [4] is reported as > 100 µM. The TGI [5] was 69.3 µM, the TGI [6] was 90.8 µM and the TGI [7] was > 100 µM. The TGI [8] was > 100 µM, the TGI [9] was > 100 µM and the TGI [10] was > 100 µM. The TGI [56] was > 100 µM, the TGI [11] was 32.5 µM and the TGI [12] was 4.57 µM. The TGI [13] was > 100 µM, the TGI [14] was 36.6 µM and the TGI [15] was > 100 µM. For the same molecule, the TGI [16] was 39.8 µM, the TGI [17] was 41 µM and the TGI [18] was > 100 µM. For the same molecule, the TGI [19] was 83.4 µM, the TGI [20] was 46.2 µM and the TGI [21] was > 100 µM. For the same molecule, the TGI [22] was 71.1 µM, the TGI [23] was 26.7 µM and the TGI [24] was 21.4 µM. It also gave a TGI [25] of 56.7 µM, a TGI [27] of 57.7 µM and a TGI [28] of 32.8 µM. The TGI [29] was 32.9 µM, the TGI [31] was > 100 µM and the TGI [32] was > 100 µM. The TGI [33] was 32.2 µM, the TGI [34] was > 100 µM and the TGI [35] was > 100 µM. For the same molecule, the TGI [36] was 23.9 µM, the TGI [37] was > 100 µM and the TGI [38] was 55.4 µM. For the same molecule, the TGI [39] was 34.3 µM, the TGI [40] was > 100 µM and the TGI [41] was 24.3 µM. The TGI [42] was 20.2 µM, the TGI [43] was > 100 µM and the TGI [44] was 47.9 µM. For the same molecule, the TGI [45] was > 100 µM, the TGI [46] was > 100 µM and the TGI [48] was 14.2 µM. The TGI [49] was 38.3 µM, the TGI [50] was > 100 µM and the TGI [51] was 71.5 µM. The TGI [52] was 87.2 µM, the TGI [53] was 78.4 µM and the TGI [54] was 49.3 µM. For the same molecule, the TGI [57] was > 100 µM and the TGI [55] was > 100 µM.
